# Read-outs that look alike come from different tables or passages of the source.
# Columns and labels:
# cancer cell = assay: 50% inhibition of cancer cell propagation, various cell lines; assay type: cell-based; conditions: varies by type of cancer cell; approximately; Table 1; read-out: concentration (IC50) required for 50% inhibition of the cancer cell propagation
# Procedure: (§1) Next, cells of different types were inoculated in wells of 12 wells plastic plate (Costar 3521, manufactured by Costar) at 2.0×10^4 /DMEM 1 ml/well, and the plate was incubated in an incubator of 5% CO2 for one day. III-121C was added to the thus incubated cells to different concentrations and incubation was continued for another 3 days. The number of cells was measured by repeating the above-described procedure to determine the concentration (IC50) of the III-121C required to inhibit the cell propagation to 50%.
# K-ras-NIH 3T3 cells [1] = assay: Activity to induce changes in cell morphology, K-ras-NIH 3T3 cells; assay type: cell-based, mouse; conditions: 0.3 μg/ml, 2 days
# Procedure: (§2) Normal rat kidney cell, NRK-49 (Dainihon Pharmaceutical K.K.) and normal mouse cell, NIH 3T3 (JCRB Cell Bank); and K-ras NIH 3T3, H-ras NIH 3T3, and N-ras NIH 3T3 (Tokyo University, Medical Science Institute, Japan) which are cell lines that have been transformed with Kirsten sarcoma virus, Harvey sarcoma virus, and neuroblastoma virus, respectively, were incubated at 37° C. in the similar manner.
# (§3) The effect of the III-121C on various types of cultured cells was evaluated by inoculating each type of cells in wells of 24 wells plastic plate (Costar 3524, manufactured by Costar) at 3×10^4 cells/1 ml medium/well; incubating the plate in an incubator of 5% CO2 for one day; and adding the III-121C sample to the cell cultures to observe the cell morphology for another two days.
# K-ras-NIH 3T3 and H-ras-NIH 3T3 are transformed cell lines, and the cells are elongated with projections or processes on their surface, and grow atop the other. N-ras-NIH 3T3 cells are also elongated and their projections or processes are even longer.
# RSV NRK cells = assay: Propagation inhibitory effect on RSV NRK cells; assay type: cell-based; conditions: Rattus norvegicus, 72 h, 33° C., 3 days, read-out: IC50, cell propagation
# NIH 3T3 cells = assay: Propagation inhibitory effect on NIH 3T3 cells; assay type: cell-based; conditions: Mus musculus, NIH3T3, 72 h; NIH 3T3, 3 days; read-out: IC50, cell propagation
# Procedure: as §2, §1
# RSV^ts-NRK cells = assay: Activity to induce changes in cell morphology, RSV^ts-NRK cells; assay type: cell-based, rat; conditions: 0.3 μg/ml, 2 days
# Procedure: as §2, §3
# RSV^ts -NRK is a cell line that had been transformed with an src oncogene, and is temperature sensitive as in the case of K-ras^ts -NRK.
# K-ras-NRK cells = assay: Action mechanism: flow-cytometric DNA content analysis of K-ras-NRK cells; assay type: cell-based, rat; conditions: 24 hours; III-121C 0.3 and 1 μg/ml, vinblastine 0.1 μg/ml (FIG. 11)
# Procedure: FIGS. 11(a) to (d) are graphs showing the results of flow-cytometric analysis wherein the number of cells is depicted in relation to their DNA content, upon addition of no reagent (FIG. 11(a)), 0.3 μg/ml of III-121C (FIG. 11(b)), 1 μg/ml of III-121C (FIG. 11(c)), and 0.1 μg/ml of vinblastine (FIG. 11(d)) to the K-ras NRK cell culture.
# To the cells of K-ras-NRK in their propagation was added either one of III-121C and vinblastine. No reagent was added to the control cells. After 24 hours from the addition, the cells were fractionated with a cell sorter to examine the DNA quantity in relation to the number of the cells.
# K-ras^ts NRK cells = assay: Propagation inhibitory effect on K-ras^ts NRK cells; assay type: cell-based, rat; conditions: for IC50: Rattus norvegicus, NRK, 72 h, K-ras^ts NRK, 3 days, read-out: IC50, cell propagation
# Procedure: as §2
# Cells of K-ras^ts -NRK were inoculated in wells of 24 wells plastic plate (Costar 3524, manufactured by Costar) at 1.0×10^4 /DMEM 1 ml/well, and the plate was incubated in an incubator of 5% CO2 at 33° C. for one day. III-121C was added to the thus incubated cells to different concentrations and the incubation was continued. After predetermined periods, the medium was removed of the cell culture, and cells were peeled off the wall of the well by using trypsin. DMEM was added to the well to uniformly suspend the cells, and the cell concentration in the suspension was measured with Coulter counter (ZM type manufactured by Coulter Electronics) to obtain the results shown in FIG. 7.
# as §1
# K-ras-NIH 3T3 cells [2] = assay: Effect on production of actin filaments, K-ras-NIH 3T3 cells; assay type: cell-based, mouse; conditions: 1 μg/ml, one day
# Procedure: (§4) A cover glass with a diameter of 18 mm (manufactured by Matsunami Glass Industry K.K.) that had been washed with 100% ethanol, dried, and sterilized was placed in wells of 12 wells plastic plate, and the cells were inoculated in the wells at 3.0×10^4 /DMEM 1 ml/well. The plate was incubated in an incubator of 5% CO2 for 1 day. To the thus incubated cell culture was added 1 μg/ml of III-121C, and the incubation was continued for another one day. The cell culture was then fixed with paraformaldehyde. The fixed cell culture was reacted with rhodamine pharoidine reagent (Molecular Probe Inc.) to examine the cell morphology by fluorescence microscope with G filter (excitation, 546 nm).
# K-ras^ts-NRK cells = assay: Effect on production of actin filaments, K-ras^ts-NRK cells; assay type: cell-based, rat; conditions: 1 μg/ml, one day
# Procedure: as §4
smiles,measurement,setting,value
CCC12CC(C(=O)OC)=C3Nc4cc5c(cc4C34CCN(CC3OC31)C42)C1C(O5)C(O)C2(CC)CC(C(=O)OC)=C3Nc4c(cc(O)c(OC)c4OC)C34CCN1C42 (stereo not shown) [III-121C],IC50,cancer cell,0.1 to 0.5 µg/mL
same,change in cell morphology and growth habits,K-ras-NIH 3T3 cells [1],"the cells changed their morphology and growth habits to those of normal NIH 3T3 cells, and became flat with an increased area of contact"
same,IC50,RSV NRK cells,0.11 µg/mL
same,IC50,NIH 3T3 cells,0.47 µg/mL
same,change in cell morphology,RSV^ts-NRK cells; 33° C.,changed their cell morphology to have a rounded appearance similar to the morphology of the normal NRK-49 cells
same,change in cell morphology,RSV^ts-NRK cells; 39° C.,changed their cell morphology to have a rounded appearance similar to the morphology of the normal NRK-49 cells
same,cell cycle / cell division inhibition,K-ras-NRK cells,Absence of the cell division inhibitory activity
same,distribution of DNA quantity in cells,K-ras-NRK cells,distribution of the DNA quantity in the cells was identical with that of the control cells
same,"cell propagation inhibition (cell growth curve, FIG. 7)","K-ras^ts NRK cells; K-ras^ts-NRK, 33° C., different concentrations",inhibited the cell propagation in concentration dependent manner
same,IC50,K-ras^ts NRK cells; 33° C.,0.29 µg/mL
same,IC50,K-ras^ts NRK cells; 39° C.,0.2 µg/mL
same,actin filaments / cell morphology,K-ras-NIH 3T3 cells [2],morphology of normal cells with longitudinally extending linear actin filaments
same,actin filaments / cell morphology,K-ras^ts-NRK cells,morphology of normal cells with longitudinally extending linear actin filaments
